Experiments:
Assay type in all cases: in vivo
Conditions in all cases: after 2 weeks
[1] = system: soybean (Glycine max, GLXMA); assay: Post-emergent evaluation
Protocol: (§1) Seeds of the desired test plant species were planted in Grace-Sierra MetroMix® 306 planting mixture, which typically has a pH of 6.0 to 6.8 and an organic matter content of about 30 percent, in plastic pots with a surface area of 64 square centimeters. When required to ensure good germination and healthy plants, a fungicide treatment and/or other chemical or physical treatment was applied. The plants were grown for 7-21 days in a greenhouse with an approximate 15 hr photoperiod which was maintained at about 23-29° C. during the day and 22-28° C. during the night. Nutrients and water were added on a regular basis and supplemental lighting was provided with overhead metal halide 1000-Watt lamps as necessary. The plants were employed for testing when they reached the first or second true leaf stage.
(§2) A weighed amount, determined by the highest rate to be tested, of each test compound was placed in a 20 mL glass vial and was dissolved in 4 mL of a 97:3 v/v (volume/volume) mixture of acetone and dimethyl sulfoxide (DMSO) to obtain concentrated stock solutions. […] The concentrated stock solutions obtained were diluted with an aqueous mixture containing acetone, water, isopropyl alcohol, DMSO, Atplus 411F crop oil concentrate, and Triton X-155 surfactant in a 48.5:39:10:1.5:1.0:0.02 v/v ratio to obtain spray solutions of known concentration. The solutions containing the highest concentration to be tested were prepared by diluting 2 mL aliquots of the stock solution with 13 mL of the mixture and lower concentrations were prepared by serial dilution of the stock solution. Approximately 1.5 mL aliquots of each solution of known concentration were sprayed evenly onto each of the test plant pots using a DeVilbiss atomizer driven by compressed air pressure of 2 to 4 psi ([…]) to obtain thorough coverage of each plant. Control plants were sprayed in the same manner with the aqueous mixture. In this test an application rate of 1 ppm results in the application of approximately 1 g/Ha.
(§3) The treated plants and control plants were placed in a greenhouse as described above and watered by sub-irrigation to prevent wash-off of the test compounds. After 2 weeks the condition of the test plants as compared with that of the untreated plants was determined visually and scored on a scale of 0 to 100 percent where 0 corresponds to no injury and 100 corresponds to complete kill. Species abbreviations as described for Table I with the following additions: soybean (Glycine max, GLXMA), rape (Brassica napus, BRSNN), chickweed (Stellaria media, STEME), cocklebur (Xanthium strumarium XANST), lambsquarters (Chenopodium album, CHEAL), violet (Viola tricolor, VIOTR), bindweed (Polygonum convolvulus, POLCO), spurge (Euphorbia heterophylla, EPHHL), Canada thistle (Cirsium arvense, CIRAR), corn (Zea mays, ZEAMX), rice (Oryza sativa, ORYSA), wheat (Triticum aestivum, TRZAS), crabgrass (Digitaria sanguinalis, DIGSA), shattercane (Sorghum vulgare, SORVU) and yellow nutsedge (Cyperus esculentus, CYPES).

[2] = system: blackgrass (Alopecurus myosuroides, ALOMY); assay: Post-emergent evaluation
Protocol: as §1, §2, §3

[3] = system: rape (Brassica napus, BRSNN); assay: Post-emergent evaluation
Protocol: as §1, §2, §3

[4] = system: wheat (Triticum aestivum, TRZAS); assay: Post-emergent evaluation
Protocol: as §1, §2, §3

[5] = system: cocklebur (Xanthium strumarium XANST); assay: Post-emergent evaluation
Protocol: as §1, §2, §3

[6] = system: lambsquarters (Chenopodium album, CHEAL); assay: Post-emergent evaluation
Protocol: as §1, §2, §3

[7] = system: pigweed (Amaranthus spp., AMARE); assay: Post-emergent evaluation
Protocol: as §1, §2, §3

[8] = system: spurge (Euphorbia heterophylla, EPHHL); assay: Post-emergent evaluation
Protocol: as §1, §2, §3

[9] = system: wild oats (Avena fatua, AVEFA); assay: Post-emergent evaluation
Protocol: as §1, §2, §3

[10] = system: corn (Zea mays, ZEAMX); assay: Post-emergent evaluation
Protocol: as §1, §2, §3

[11] = system: Canada thistle (Cirsium arvense, CIRAR); assay: Post-emergent evaluation
Protocol: as §1, §2, §3

[12] = system: rice (Oryza sativa, ORYSA); assay: Post-emergent evaluation
Protocol: as §1, §2, §3

[13] = system: bindweed (Polygonum convolvulus, POLCO); assay: Post-emergent evaluation
Protocol: as §1, §2, §3

[14] = system: BW ave; assay: Post-emergent evaluation, average
Protocol: as §1, §2, §3

[15] = system: GW ave; assay: Post-emergent evaluation, average
Protocol: as §1, §2, §3

With C=C(CO)C(C)(O)CC(=O)O (stereo not drawn) [methylidene mevalonate, 3-hydroxy-4-(hydroxymethyl)-3-methylpent-4-enoic acid] the “Postemergent % Control” value ([1]; spray concentration 125 ppm) was 20%, the “Postemergent % Control” value ([1]; spray concentration 250 ppm) was 20% and the “Postemergent % Control” value ([1]; spray concentration 500 ppm) was 50%. The “Postemergent % Control” value ([1]; spray concentration 1000 ppm) was 80%, the “Postemergent % Control” value ([1]; spray concentration 2000 ppm) was 80% and the “Postemergent % Control” value ([2]; spray concentration 125 ppm) was 0%. For the same compound, the “Postemergent % Control” value ([2]; spray concentration 250 ppm) was 20%, the “Postemergent % Control” value ([2]; spray concentration 500 ppm) was 60% and the “Postemergent % Control” value ([2]; spray concentration 1000 ppm) was 70%. The “Postemergent % Control” value ([2]; spray concentration 2000 ppm) was 80%, the “Postemergent % Control” value ([3]; spray concentration 125 ppm) was 0% and the “Postemergent % Control” value ([3]; spray concentration 250 ppm) was 10%. The “Postemergent % Control” value ([3]; spray concentration 500 ppm) was 50%, the “Postemergent % Control” value ([3]; spray concentration 1000 ppm) was 50% and the “Postemergent % Control” value ([3]; spray concentration 2000 ppm) was 60%. For the same compound, the “Postemergent % Control” value ([4]; spray concentration 125 ppm) was 0%, the “Postemergent % Control” value ([4]; spray concentration 250 ppm) was 20% and the “Postemergent % Control” value ([4]; spray concentration 500 ppm) was 20%. For the same compound, the “Postemergent % Control” value ([4]; spray concentration 1000 ppm) was 70%, the “Postemergent % Control” value ([4]; spray concentration 2000 ppm) was 80% and the “Postemergent % Control” value ([5]; spray concentration 125 ppm) was 0%. For the same compound, the “Postemergent % Control” value ([5]; spray concentration 250 ppm) was 5%, the “Postemergent % Control” value ([5]; spray concentration 500 ppm) was 10% and the “Postemergent % Control” value ([5]; spray concentration 1000 ppm) was 20%. The “Postemergent % Control” value ([5]; spray concentration 2000 ppm) was 20%, the “Postemergent % Control” value ([6]; spray concentration 125 ppm) was 0% and the “Postemergent % Control” value ([6]; spray concentration 250 ppm) was 0%. For the same compound, the “Postemergent % Control” value ([6]; spray concentration 500 ppm) was 10%, the “Postemergent % Control” value ([6]; spray concentration 1000 ppm) was 50% and the “Postemergent % Control” value ([6]; spray concentration 2000 ppm) was 80%. The “Postemergent % Control” value ([7]; spray concentration 125 ppm) was 10%, the “Postemergent % Control” value ([7]; spray concentration 250 ppm) was 30% and the “Postemergent % Control” value ([7]; spray concentration 500 ppm) was 100%. For the same compound, the “Postemergent % Control” value ([7]; spray concentration 1000 ppm) was 100%, the “Postemergent % Control” value ([7]; spray concentration 2000 ppm) was 100% and the “Postemergent % Control” value ([8]; spray concentration 125 ppm) was 30%. The “Postemergent % Control” value ([8]; spray concentration 250 ppm) was 30%, the “Postemergent % Control” value ([8]; spray concentration 500 ppm) was 50% and the “Postemergent % Control” value ([8]; spray concentration 1000 ppm) was 60%. For the same compound, the “Postemergent % Control” value ([8]; spray concentration 2000 ppm) was 70%, the “Postemergent % Control” value ([9]; spray concentration 125 ppm) was 0% and the “Postemergent % Control” value ([9]; spray concentration 250 ppm) was 0%. For the same compound, the “Postemergent % Control” value ([9]; spray concentration 500 ppm) was 20%, the “Postemergent % Control” value ([9]; spray concentration 1000 ppm) was 85% and the “Postemergent % Control” value ([9]; spray concentration 2000 ppm) was 90%. For the same compound, the “Postemergent % Control” value ([10]; spray concentration 125 ppm) was 0%, the “Postemergent % Control” value ([10]; spray concentration 250 ppm) was 20% and the “Postemergent % Control” value ([10]; spray concentration 500 ppm) was 60%. The “Postemergent % Control” value ([10]; spray concentration 1000 ppm) was 98%, the “Postemergent % Control” value ([10]; spray concentration 2000 ppm) was 98% and the “Postemergent % Control” value ([11]; spray concentration 125 ppm) was 10%. For the same compound, the “Postemergent % Control” value ([11]; spray concentration 250 ppm) was 10%, the “Postemergent % Control” value ([11]; spray concentration 500 ppm) was 20% and the “Postemergent % Control” value ([11]; spray concentration 1000 ppm) was 40%. For the same compound, the “Postemergent % Control” value ([11]; spray concentration 2000 ppm) was 50%, the “Postemergent % Control” value ([12]; spray concentration 125 ppm) was 0% and the “Postemergent % Control” value ([12]; spray concentration 250 ppm) was 30%. For the same compound, the “Postemergent % Control” value ([12]; spray concentration 500 ppm) was 40%, the “Postemergent % Control” value ([12]; spray concentration 1000 ppm) was 80% and the “Postemergent % Control” value ([12]; spray concentration 2000 ppm) was 80%. The “Postemergent % Control” value ([13]; spray concentration 125 ppm) was 20%, the “Postemergent % Control” value ([13]; spray concentration 250 ppm) was 20% and the “Postemergent % Control” value ([13]; spray concentration 500 ppm) was 85%. For the same compound, the “Postemergent % Control” value ([13]; spray concentration 1000 ppm) was 90%, the “Postemergent % Control” value ([13]; spray concentration 2000 ppm) was 95% and the “Postemergent % Control, BW ave” value ([14]; spray concentration 125 ppm) was 11%. The “Postemergent % Control, BW ave” value ([14]; spray concentration 250 ppm) was 15%, the “Postemergent % Control, BW ave” value ([14]; spray concentration 500 ppm) was 37% and the “Postemergent % Control, BW ave” value ([14]; spray concentration 1000 ppm) was 54%. For the same compound, the “Postemergent % Control, BW ave” value ([14]; spray concentration 2000 ppm) was 63%, the “Postemergent % Control, GW ave” value ([15]; spray concentration 125 ppm) was 12% and the “Postemergent % Control, GW ave” value ([15]; spray concentration 250 ppm) was 39%. The “Postemergent % Control, GW ave” value ([15]; spray concentration 500 ppm) was 64%, the “Postemergent % Control, GW ave” value ([15]; spray concentration 1000 ppm) was 82% and the “Postemergent % Control, GW ave” value ([15]; spray concentration 2000 ppm) was 88%.

Source: patent US7393812B2, “Methylidene mevalonates and their use as herbicides” (Dow AgroSciences LLC, priority 2004, dated 2008)
